# How the values were obtained:
# Details in all cases: 72 h
# [1] = test system: Calu-3; assay: drug sensitivity score (DSS) for viability; higher = more toxic; extreme values may be limits of the assay
# [2] = test system: HepG2; assay: as above
# [3] = test system: Vero E6; assay: as above
# [4] = test system: U2OS; assay: as above
# [5] = test system: Caco-2; assay: as above
# [6] = test system: Calu-3; assay: relative viability EC50 (midpoint between 100% and the lowest measured viability); higher = less toxic
# [7] = test system: HepG2; assay: as above
# [8] = test system: Vero E6; assay: as above
# [9] = test system: U2OS; assay: as above
# [10] = test system: Calu-3; assay: cell viability relative to DMSO; higher = less toxic
# [11] = test system: HepG2; assay: as above
# [12] = test system: Vero E6; assay: as above
# [13] = test system: U2OS; assay: as above
# [14] = test system: Caco-2; assay: as above
# [15] = test system: Caco-2; assay: relative viability EC50 (midpoint between 100% and the lowest measured viability); higher = less toxic
SMILES,drug sensitivity score [1],drug sensitivity score [2],drug sensitivity score [3],drug sensitivity score [4],drug sensitivity score [5],relative viability EC50 [6] [µM],relative viability EC50 [7] [µM],relative viability EC50 [8] [µM],relative viability EC50 [9] [µM],cell viability ([10]; 1 nM) [%],cell viability ([10]; 10 nM) [%],cell viability ([10]; 100 nM) [%],cell viability ([10]; 1000 nM) [%],cell viability ([10]; 10000 nM) [%],cell viability ([11]; 1 nM) [%],cell viability ([11]; 10 nM) [%],cell viability ([11]; 100 nM) [%],cell viability ([11]; 1000 nM) [%],cell viability ([11]; 10000 nM) [%],cell viability ([12]; 1 nM) [%],cell viability ([12]; 10 nM) [%],cell viability ([12]; 100 nM) [%],cell viability ([12]; 1000 nM) [%],cell viability ([12]; 10000 nM) [%],cell viability ([13]; 1 nM) [%],cell viability ([13]; 10 nM) [%],cell viability ([13]; 100 nM) [%],cell viability ([13]; 1000 nM) [%],cell viability ([13]; 10000 nM) [%],cell viability ([14]; 1 nM) [%],cell viability ([14]; 10 nM) [%],cell viability ([14]; 100 nM) [%],cell viability ([14]; 1000 nM) [%],cell viability ([14]; 10000 nM) [%],relative viability EC50 [15] [µM]
O=C1NC(=O)c2cc(Nc3ccc(F)cc3)c(Nc3ccc(F)cc3)cc21,0.5,4,0,0,2.2,> 10,1.91,> 10,> 10,106,106,94.7,106,77.8,101,93.9,101,91.8,49.7,96.9,97.1,99.9,93.5,103,95,100,97.2,101,87.9,93.9,88.6,95.2,93.3,70.2,–
c1ccc(N2CCN(CCCOc3ccc4c(c3)OCO4)CC2)cc1 [BP-554],0,0,0,–,0,> 10,> 10,> 10,–,101,107,99.5,103,110,107,93.1,95.3,102,103,94.5,94.6,94.7,96.2,96,–,–,–,–,–,107,102,101,105,98.7,> 10
CC(=O)Oc1ccccc1C(=O)Oc1cccc(CO[N+](=O)[O-])c1 [NO-ASA],0,1.7,0,0,–,> 10,> 10,> 10,> 10,96.3,101,98.9,103,107,95.4,104,100,88.9,79.9,102,108,101,89.7,105,98,98.5,99.4,101,93.1,–,–,–,–,–,–
CC(C)c1nc(CN(C)C(=O)N[C@H](C(=O)N[C@@H](Cc2ccccc2)C[C@H](O)[C@H](Cc2ccccc2)NC(=O)OCc2cncs2)C(C)C)cs1 [Ritonavir],0.1,0,0,0,1.2,> 10,> 10,> 10,> 10,97.4,89.1,94.9,103,86.3,103,93.9,97.2,96.8,93.8,–,–,–,–,–,93.7,97.8,100,99.2,96.4,99.9,90.5,94.4,96.9,77.6,> 10
CCOc1ccc(NC(=S)N2CCC(C(O)(c3ccccc3)c3ccccc3)CC2)cc1 [SF-11],0,0,0,0,–,> 10,> 10,> 10,> 10,100,107,96.7,104,96.5,99.5,100,103,109,91.7,101,99.9,98.4,99.8,102,101,96.6,98.4,98.2,100,–,–,–,–,–,–
O=C(Nc1cc(-c2ccccc2)nn1-c1ccccc1F)c1ccc([N+](=O)[O-])cc1 [VU1545],0,0,0,–,–,> 10,> 10,> 10,–,101,97.7,92.9,98,87.5,107,83.9,104,89.6,97.5,111,105,107,108,99.9,–,–,–,–,–,–,–,–,–,–,–
CN(C)N(C)C(=O)[C@@]1(Cc2ccccc2)CCCN(C(=O)[C@@H](Cc2c[nH]c3ccccc23)NC(=O)C(C)(C)N)C1 [anamorelin],0,0,0,0,–,> 10,> 10,> 10,> 10,85.1,86.9,91.7,94.4,89.8,113,99.6,106,102,103,103,107,101,104,95.4,103,100,104,102,99.5,–,–,–,–,–,–
Oc1cc2c(cc1O)CN(C(=S)NCCc1ccc(Cl)cc1)CCC2 [capsazepine],0,0.1,0,0,2.5,> 10,> 10,> 10,> 10,107,103,110,104,92.6,103,114,107,100,86.9,101,101,101,92.2,98.8,98.2,103,97.3,101,97.7,90.9,98.4,91.2,90.2,65.8,–

# From the supplement of paper PMC13380429
